Data on ten compounds can be found in patent US8026235B1, “Pyridyl benzoxazine derivatives, pharmaceutical composition comprising the same, and use thereof” (Daewoong Pharmaceutical Co., Ltd., priority 2010, dated 2011).

The target in series [1] is T1, human vanilloid-1 (TRPV1) (Homo sapiens, UniProt Q8NER1).
T1 construct: expressed in transfected cells; host or cells: HEK293 Tet-on (hVR-1-HEK293), expression induced with doxycycline
In words: Inhibitory effect on capsaicin-stimulated calcium influx via a vanilloid receptor in hVR-1-HEK293 cells (Fluo-3/AM). It is filed as cell-based. The following applies: 1 μM capsaicin. From the text:
In order to confirm the antagonistic activities of the inventive compounds, inhibitory effects of the compounds on calcium influx were examined as follows.
hVR-1-HEK293 cell line is a human embryonic kidney (HEK) cell 293 Tet-on strain transformed with a human vanilloid-1 gene (pTRE2hyg-hVR-1 7.8 kb). The cell line can modulate the expression of TRPV1, depending on whether doxycycline, a derivative of tetracycline, is present or not.
In order to elucidate the inhibitory effect on calcium influx, the expression of TRPV1 was induced by culturing hVR-1-HEK293 cell line in a medium containing doxycycline for 2 days.
Specifically, hVR-1-HEK293 cells were cultured in a T75 flask to about 80% confluency, separated from the flask by treating with trypsin solution, and then collected by centrifugation. The cells were suspended in a medium containing 1 μg/mL of doxycycline, and the resulting suspension was diluted to a concentration of 2˜4×10^5 cells/mL 100 μL of the cell suspension was placed in each well of a 96-well black plate. The cells were cultured in 5% CO2 incubator at 37° C. for 2 days, and used for the following procedure.
The compounds, prepared in the Examples 1 to 9 of the present invention, were dissolved in dimethyl sulfoxide (DMSO) to obtain compound samples.
The cells prepared in 1) above were cultured at 37° C. for 90 min in a solution containing Fluo-3/AM, a fluorescent dye, as a calcium indicator so that the fluorescent dye was permeated into the cells. Then the cells were washed three times with D-PBS (Dulbecco's phosphate buffered saline) containing 10 mM HEPES (4-(2-hydroxyethyl)-1-piperazine ethanesulfonic acid) to remove the residual fluorescent dye. 193 μL of D-PBS was added to each well, followed by addition of various concentrations (0.015˜2000 nM) of the compounds. In order to stimulate calcium influx through a vanilloid receptor, the cells were treated with 1 μM of capsaicin. The inhibitory effect of various concentrations (0.015˜2000 nM) of compounds on intracellular calcium influx was measured by using a fluorimeter. Equivalent amounts of (R)-1-(2-bromophenyl)-3-(1-(5-(trifluoromethyl)pyridin-2-yl)pyrrolidin-3-yl)urea (also, referred to SB-705498) was used as a control group. The obtained data were input to the Hill equation represented by the following formula I and the values were analyzed: Intracellular calcium influx=(florescent intensity of experimental group−florescent intensity of background)/(florescent intensity of positive control−florescent intensity of background)×100 [Formula 1]
The inhibitory activities were evaluated from the obtained intracellular calcium influx values according to the following criteria.

The subject of series [2] is SD rats (Sprague-Dawley rats). The series is described as follows: Assay for body temperature change (rectal temperature) in SD rats. It is filed as in vivo. Particulars: single oral administration, rectal temperature up to 8 hr. The method, then:
With the knowledge that some TRPV1 antagonists show the side effect of increasing the body temperature (Gavva et al., 2008, Pain, 136, 202-210), changes in body temperature associated with the compounds prepared in the Examples of the present invention were assessed.
7-week-old SD rats (Sprague-Dawley rats) were employed for this evaluation. Each of the compounds of the Examples was orally administered once at a dose of 10 ml/kg by compulsion. Before administration, the compounds were suspended, together with the excipient Na-CMC (sodium carboxymethyl cellulose), in saline 10 mL. Rectal temperatures of the rats were measured 1 hr and immediately (0 hr) prior to administration, and at the 30 min, 1 hr, 2 hr, 4 hr, 6 hr and 8 hr marks after administration using a thermometer (Shibaura Electronic Corporation, TD-300). The data were expressed as mean values ±S.E.M. Statistical data was analyzed by one way ANOVA, and statistical significance was analyzed in comparison with the excipient-treated control using Dunnett's t-test. Meanwhile, N-(4-(6-(4-(trifluoromethyl)phenyl)[…])benzo[d]thiazol-2-yl)acetamide (hereinafter referred to as “AMG-517”) was used at a dose of 3 mg/kg, as a positive control.

In series [3] the test system is PBQ-induced writhing in ICR male mice. In words: Phenyl-p-quinone (PBQ)-induced writhing experiment using mice (effect on pain). The class given is in vivo. Particulars: oral, PBQ (0.02%) i.p. after 1 hour; for I.A. (inhibitory activity), % inhibition rate class: writhing counted for 10 min. Here is the method:
In order to evaluate the effect on pain of the compounds prepared in the Examples 1 to 9, behaviors such as twisting or writhing of body resulted from pain were verified by the phenyl-p-quinone (PBQ)-induced writhing experiment using mice.
5 week-old ICR male mice were used as experimental animals and PBQ (0.02%), as a chemical stimulator. The suspensions of 20 mg of the compounds of the present invention and an excipient such as Na-CMC (sodium carboxymethyl cellulose) in 10 mL of saline were used as test compounds. The test compounds were orally administered to the mice and after 1 hour, PBQ was intraperitoneally administrated in an amount of 10 mL per kg of body weight. The writhing number of each mouse was measured for 10 min starting from 5 min after the administration, and the analgesic effect was verified by counting the reduced number compared to the control group administered with only excipient and calculating the % inhibitory rate according to the following Formula 2. Also, equivalent amounts of SB-705498 were administered as a reference compound for the comparison of the effect on pain between SB-705498 and the compounds of the present invention. % inhibition rate=(writhing # of control group−writhing # of test group)/writhing # of control group×100 [Formula 2]
The inhibitory activity was evaluated from the obtained % inhibition rate, according to the following parameters.
In general terms: Writhing tests count abdominal constrictions after an irritant is injected.

Setting [4] is: compounds 0.015˜2000 nM, read-out: I.A. (inhibitory activity), IC50 class.

Where two headings read alike, the source gives them in different places. Where only a bound is given, the exact number is not on record here.

T1 sequence (Q8NER1 whole entry): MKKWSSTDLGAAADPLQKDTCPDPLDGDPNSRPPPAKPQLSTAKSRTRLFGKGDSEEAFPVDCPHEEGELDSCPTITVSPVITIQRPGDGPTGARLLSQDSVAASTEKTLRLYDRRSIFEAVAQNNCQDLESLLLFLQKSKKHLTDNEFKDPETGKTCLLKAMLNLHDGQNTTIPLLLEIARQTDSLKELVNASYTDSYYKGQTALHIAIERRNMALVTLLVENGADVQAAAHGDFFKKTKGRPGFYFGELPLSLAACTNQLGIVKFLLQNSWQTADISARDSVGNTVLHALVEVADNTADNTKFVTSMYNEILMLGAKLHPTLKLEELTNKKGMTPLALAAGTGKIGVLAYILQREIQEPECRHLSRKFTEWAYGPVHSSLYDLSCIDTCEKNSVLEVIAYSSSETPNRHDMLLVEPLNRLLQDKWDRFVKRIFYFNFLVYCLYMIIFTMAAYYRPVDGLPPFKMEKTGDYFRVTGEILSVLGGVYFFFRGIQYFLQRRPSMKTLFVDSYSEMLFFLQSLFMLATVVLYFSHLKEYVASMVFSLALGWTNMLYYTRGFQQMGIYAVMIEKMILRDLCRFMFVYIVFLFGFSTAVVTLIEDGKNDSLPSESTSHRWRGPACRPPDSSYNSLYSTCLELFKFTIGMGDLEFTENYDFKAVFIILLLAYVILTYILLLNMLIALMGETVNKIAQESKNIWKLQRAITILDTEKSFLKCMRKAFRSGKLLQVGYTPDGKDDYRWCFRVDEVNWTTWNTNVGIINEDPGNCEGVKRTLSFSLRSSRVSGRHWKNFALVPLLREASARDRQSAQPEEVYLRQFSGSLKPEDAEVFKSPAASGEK

In the case of `COc1ccc(N2CCOc3c(-c4nc5ccc(C(C)(C)C)cc5[nH]4)cccc32)nc1` [Example 1, 8-(6-tert-Butyl-1H-benzo[d]imidazol-2-yl)-4-(5-methoxypyridin-2-yl)-3,4-dihydro-2H-benzo[b][1,4]oxazine], in series [1] (setting [4]), the IC50 (commonly the concentration that inhibits the measured activity by half) lay within 101 to 500 nM. The “Change in Body Temp.” value in series [2] was “+/− (±<0.5° C.)”. Besides, the “I.A. (inhibitory activity), % inhibition rate class” value in series [3] is on record as “++ (20˜50%)”.
The matching figures for `COc1ccc(N2c3cccc(-c4nc5ccc(C(F)(F)F)cc5[nH]4)c3OC[C@@H]2CO)nc1` [Example 2, (S)-(4-(5-methoxypyridin-2-yl)-8-(6-(trifluoromethyl)-1H-benzo[d]imidazol-2-yl)-3,4-dihydro-2H-benzo[b][1,4]oxazin-3-yl)methanol]: 20 to 100 nM, “+ (0.5^~1.0° C.)” and “++ (20˜50%)”.
The corresponding values for `COc1ccc(N2c3cccc(-c4nc5cc(Cl)c(Cl)cc5[nH]4)c3OC[C@@H]2CO)nc1` [Example 3, (S)-(8-(5,6-dichloro-1H-benzo[d]imidazol-2-yl)-4-(5-methoxypyridin-2-yl)-3,4-dihydro-2H-benzo[B][1,4]oxazin-3-yl)methanol] are 20 to 100 nM, “+/− (±<0.5° C.)” and “++ (20˜50%)”.
As to `COc1ccc(N2c3cccc(-c4nc5ccc(OC(F)(F)F)cc5[nH]4)c3OC[C@@H]2CO)nc1` [Example 4, (S)-(4-(5-methoxypyridin-2-yl)-8-(6-(trifluoromethoxy)-1H-benzo[d]imidazol-2-yl)-3,4-dihydro-2H-benzo[b][1,4]oxazin-3-yl)methanol], the IC50 in series [1] (setting [4]) lay within 20 to 100 nM. For the same compound, the “Change in Body Temp.” value in series [2] was “+/− (±<0.5° C.)”. The “I.A. (inhibitory activity), % inhibition rate class” value in series [3] is reported as “++ (20˜50%)”.
The corresponding values for `COc1ccc(N2c3cccc(-c4nc5c(Br)cc(OC(F)(F)F)cc5[nH]4)c3OC[C@@H]2CO)nc1` [Example 5, (S)-(8-(4-bromo-6-(trifluoromethoxy)-1H-benzo[d]imidazol-2-yl)-4-(5-methoxypyridin-2-yl)-3,4-dihydro-2H-benzo[B][1,4]oxazin-3-yl)methanol] are under 20 nM, “+ (0.5^~1.0° C.)” and “+++ (51-80%)”.
For the compound `COc1ccc(N2c3cccc(-c4nc5cc(F)c(Cl)cc5[nH]4)c3OC[C@@H]2CO)nc1` [Example 6, (S)-(8-(6-chloro-5-fluoro-1H-benzo[d]imidazol-2-yl)-4-(5-methoxypyridin-2-yl)-3,4-dihydro-2H-benzo[b][1,4]oxazin-3-yl)methanol], the IC50 in series [1] (setting [4]) is 20 to 100 nM. Also, in series [2], the “Change in Body Temp.” value is recorded as “+/− (±<0.5° C.)”. In addition, the “I.A. (inhibitory activity), % inhibition rate class” value in series [3] is reported as “+++ (51-80%)”.
As to `COc1ccc(N2c3cccc(-c4nc5c(Br)cc(C(F)(F)F)cc5[nH]4)c3OC[C@@H]2CO)nc1` [Example 7, (S)-(8-(4-bromo-6-(trifluoromethyl)-1H-benzo[d]imidazol-2-yl)-4-(5-methoxypyridin-2-yl)-3,4-dihydro-2H-benzo[b][1,4]oxazin-3-yl)methanol], the 50% inhibitory concentration (IC50) in series [1] (setting [4]) was in the range of 101 to 500 nM. Also, the “Change in Body Temp.” value in series [2] is listed as “+ (0.5^~1.0° C.)”. Besides, in series [3], the “I.A. (inhibitory activity), % inhibition rate class” value was “++ (20˜50%)”.
The matching figures for `COc1ccc(N2c3cccc(-c4nc5c(Cl)cc(C(F)(F)F)cc5[nH]4)c3OC[C@@H]2CO)nc1` [Example 8, (S)-(8-(4-chloro-6-(trifluoromethyl)-1H-benzo[d]imidazol-2-yl)-4-(5-methoxypyridin-2-yl)-3,4-dihydro-2H-benzo[b][1,4]oxazin-3-yl)methanol]: 20 to 100 nM, “+/− (±<0.5° C.)” and “+++ (51-80%)”.
The matching figures for `COc1ccc(N2c3cccc(-c4nc5c(Br)cc(Br)cc5[nH]4)c3OC[C@@H]2CO)nc1` [Example 9, (S)-(8-(4,6-dibromo-1H-benzo[d]imidazol-2-yl)-4-(5-methoxypyridin-2-yl)-3,4-dihydro-2H-benzo[b][1,4]oxazin-3-yl)methanol]: 101 to 500 nM, “+ (0.5^~1.0° C.)” and “++ (20˜50%)”.
As to `O=C(Nc1ccccc1Br)N[C@@H]1CCN(c2ccc(C(F)(F)F)cn2)C1` [SB-705498, (R)-1-(2-bromophenyl)-3-(1-(5-(trifluoromethyl)pyridin-2-yl)pyrrolidin-3-yl)urea, reference compound], the half-inhibitory concentration (IC50) in series [1] (read-out: IC50 on calcium influx) is 100 to 150 nM. The “% inhibition rate of writhing” value in series [3] is under 20%.
